Reference: patent publication US4303672A, “Cyclopropanecarboxylate insecticides and/or acaricides exhibiting low toxicity to mammals and fish” (priority 1979, dated 1981)
Values after ≈ are worked out from the molar mass of the structure shown. Read-outs that look alike come from different tables or passages of the source.

Key:
[1] = Test Example 7: Test for toxicity to fishes (fry carp); assay type: in vivo, fry carp (Cyprinus carpio); details: water, read-out: Toxicity to fishes TLm48
Procedure: (§1) Toxicity to killifish (Oryzias latipes) was tested according to the test method for toxicity to fishes described in Notification B No. 2735 of the Ministry of Agriculture and Forestry (Nov. 25, 1965). Namely, each of the present compounds (1), (4), (5) and (6) was dissolved or suspended in "Tween 80" and diluted successively with dechlorinated tap water. Ten killifish (0.2-0.3 g per fish) were released in a 10-liter glass vessel containing 5 liters of each preparation.
Toxicity to fry carp (Cyprinus carpio) was tested according to the test method for toxicity to fishes described in Notification B No. 2735 of the Ministry of Agriculture and Forestry (Nov. 25, 1965). The comparative test was made in a manner similar to that of Test Example 1.

[2] = tested on: killifishes (Oryzias latipes); test: Test Example 6: simulated paddy field test, killifish; assay type: in vivo; details: 100 ppm at 100 liter/10 are, water depth 5 cm, after 48 hours
Procedure: (§2) The wettable powder of each of the present compounds (1), (2), (4) and (5) prepared in Preparation Example 4 was diluted with water so that the concentration of active ingredient was 100 ppm. Soil was placed in a plastic box [5 m×5 m×2 m (deep)] to a level of 50 cm from the bottom, and rice plants about 50 cm high were transplanted at intervals of 50 cm. Water was then placed in the box so that water depth was 5 cm, and 20 killifishes (Oryzias latipes) were liberated therein. Thereafter, the above dilute solution was sprayed on the box at a rate of 100 liter/10 are. The solution fell on the rice plants as well as on the water surface.
(§3) One hour after treatment, 100 female adults of green rice leafhopper (Nephotettix cincticeps) were liberated in the box which was immediately covered with a net.

[3] = tested on: green rice leafhopper (Nephotettix cincticeps); test: Test Example 6: simulated paddy field test, green rice leafhopper; assay type: in vivo; details: 100 ppm at 100 liter/10 are, after 48 hours
Procedure: as §2, §3

[4] = tested on: yellow fever mosquito (Aedes aegypti); assay type: in vivo; details: 50 mg granule in 100 cc water, full grown larvae, 24 hours
Procedure: Fifty milligrams of the granule of the present compound (1) obtained in Preparation Example 6 was placed in a 100-cc beaker containing 100 cc of distilled water, and 30 full grown larvae of yellow fever mosquito (Aedes aegypti) were liberated therein. After 24 hours, 100% of the larvae could be killed.

[5] = tested on: carmine mites (Tetranychus cinnabarinus); test: Test Example 4: spray test against carmine mites on rice plants; assay type: in vivo; details: 500 ppm spray, all stages, after 10 days
Procedure: The emulsifiable concentrate of each of the present compounds (1) and (6) prepared in Preparation Example 1 was diluted with water so that the concentration of the active ingredient was 500 ppm. The dilute liquor was thoroughly sprayed on rice plants (grown in a 1/10,000 are Wagner's pot) on which carmine mites (Tetranychus cinnabarinus) in all stages were made parasitic.

[6] = Test Example 1: Test for toxicity to fishes (killifish); assay type: in vivo, killifish (Oryzias latipes); details: water; killifish, 48 hours; read-out: Toxicity to fishes TLm48 (medium tolerance limit, 48 hours)
Procedure: as §1
(§4) In order to make it clearer that the present compounds have a low toxicity to fishes as well as a high insecticidal activity, a safety coefficient to fishes was calculated from the test results of toxicity to fishes and insecticidal activity. [formula]
(§5) A detailed explanation will be given as to a method of how to calculate the safety coefficient. In the case of green rice leafhoppers, calculation was based on the concentration of active ingredient in water obtained by applying a test solution containing the active ingredient in an amount corresponding to LC50 (ppm) to a flooded paddy field 5 cm deep at a rate of 100 liter/10 are, provided that all the active ingredient applied entered the water.
(§6) In this case, the coefficient is 333, which means that the present compound (1) has a 333-fold safety.

[7] = tested on: killifish (Oryzias latipes); test: as above; assay type: in vivo; details: TLm48 killifish (a) / concentration of active ingredient in water (b) at green rice leafhopper LC50
Procedure: as §1, §4, §5, §6

[8] = tested on: green rice leafhopper (Nephotettix cincticeps); test: Test Example 5: Residual effect test (green rice leafhopper); assay type: in vivo
Procedure: The emulsifiable concentrate of the present compound (1) prepared in Preparation Example 1 was diluted with water so that the concentration of active ingredient was 400 ppm. Thereafter, 20 cc of the dilute solution was sprayed on rice plants grown in a 1/10,000 are Wagner's pot. The rice plants were air-dried and covered with a wire-screen cage, and 15 female adults of green rice leafhopper (Nephotettix cincticeps) were liberated therein. After 24 hours, the dead and alive were examined to obtain mortality. In order to examine the residual effect, the pot was then left as it was for 7 days, and the test insects were liberated in the same manner as above. After 24 hours, the mortality was examined. The experiment was carried out in a greenhouse and the number of replications was three.

[9] = tested on: green rice leafhopper (Nephotettix cincticeps); test: Test Example 1: Test for insecticidal activity (green rice leafhopper); assay type: in vivo; details: green rice leafhopper R-strain, spray on rice plant, 26° C., 24 hours, 3 replications, read-out: LC50 (median lethal concentration)
From the text: The emulsifiable concentrates of the present compounds and reference compound prepared in Preparation Example 1 were each formulated into test solutions having four different concentrations of active ingredient between 500 ppm and 0.5 ppm. Each test solution was sprayed on rice plant in a 180-ml plastic cup which had elapsed one month after sowing, at a rate of 15 cc/2 cups by means of a turn table. After air-drying, the rice plant was covered with a wire-screen cage, and 15 female adults of green rice leafhopper (Nephotettix cincticeps) (a strain resistant to carbamates and organo-phosphates, hereinafter referred to as R-strain) were liberated therein. The plant was placed in an artificial climate chamber kept at 26° C. After 24 hours, the dead and alive were examined. The median lethal concentration [LC50 (ppm)] was calculated from the mortality determined by 3 replications.
as §5, §6

For `CC1(C)[C@H](C(=O)OC(C#N)c2cccc(Oc3ccc(Br)cc3)c2)[C@H]1C(Br)C(Cl)(Cl)Br` (relative stereo) [(2), m-(p-Bromophenoxy)-α-cyanobenzyl dl-trans-2,2-dimethyl-3-(1,2-dibromo-2,2-dichloroethyl)cyclopropanecarboxylate], the LC50 at 48 h [1] was > 1 µg/mL, the killifish survival [2] was “all the killifishes were alive” and the “alive green rice leafhoppers found” value [3] was “no alive green rice leafhoppers were found”.

In the case of `CC1(C)[C@H](C(=O)OC(C#N)c2cccc(Oc3ccc(Br)cc3)c2)[C@@H]1C(Br)C(Cl)(Cl)Br` (relative stereo) [(3), m-(p-Bromophenoxy)-α-cyanobenzyl dl-cis-2,2-dimethyl-3-(1,2-dibromo-2,2-dichloroethyl)cyclopropanecarboxylate], the LC50 at 48 h [1] is reported as > 1 µg/mL.

In the case of `CC1(C)C(C(=O)OC(C#N)c2cccc(Oc3ccc(Br)cc3)c2)C1C(Br)C(Cl)(Cl)Br` (stereo not drawn) [(1), m-(p-Bromophenoxy)-α-cyanobenzyl 2,2-dimethyl-3-(1,2-dibromo-2,2-dichloroethyl)cyclopropanecarboxylate], the larvae killed [4] is reported as 100%, the “spreading of the damage to rice plants by carmine mites” value [5] is reported as “the spreading of the damage could be prevented” and the LC50 at 48 h [6] is reported as 4 µg/mL (≈ 6.11 µM). The “Safety coefficient to fishes (a)/(b)” value [7] was 333, the LC50 at 48 h [1] was > 1 µg/mL and the mortality at 400 ppm ([8]; 400 ppm spray, 24 hours after liberation, greenhouse, read-out: Mortality, effect immediately after treatment) was 100%. For the same compound, the mortality at 400 ppm ([8]; 400 ppm spray, insects liberated 7 days after treatment, 24 hours, greenhouse, read-out: Mortality, effect 7 days after treatment) was 100%, the killifish survival [2] was “all the killifishes were alive” and the “alive green rice leafhoppers found” value [3] was “no alive green rice leafhoppers were found”. The LC50 [9] was 5.8 µg/mL (≈ 8.85 µM).

For `CC1(C)C(C(=O)OC(C#N)c2cccc(Oc3ccc(Br)cc3)c2)C1C(Br)C(Br)(Br)Br` (stereo not drawn) [(4), m-(p-Bromophenoxy)-α-cyanobenzyl 2,2-dimethyl-3-(1,2,2,2-tetrabromoethyl)cyclopropanecarboxylate], the LC50 at 48 h [6] was > 10 µg/mL, the “Safety coefficient to fishes (a)/(b)” value [7] was > 500 and the killifish survival [2] was “all the killifishes were alive”. The “alive green rice leafhoppers found” value [3] was “no alive green rice leafhoppers were found” and the LC50 [9] was 10 µg/mL (≈ 13.4 µM).

For `CC1(C)[C@H](C(=O)OC(C#N)c2cccc(Oc3ccc(Br)cc3)c2)[C@H]1C(Br)C(Br)(Br)Br` (stereo partly drawn) [(5), m-(p-Bromophenoxy)-α-cyanobenzyl d-trans-2,2-dimethyl-3-(1,2,2,2-tetrabromoethyl)cyclopropanecarboxylate], the LC50 at 48 h [6] was > 5 µg/mL, the “Safety coefficient to fishes (a)/(b)” value [7] was > 1667 and the killifish survival [2] was “all the killifishes were alive”. For the same compound, the “alive green rice leafhoppers found” value [3] was “no alive green rice leafhoppers were found” and the LC50 [9] was 1.7 µg/mL (≈ 2.29 µM).

In the case of `CC1(C)[C@H](C(=O)OC(C#N)c2cccc(Oc3ccc(Br)cc3)c2)[C@@H]1C(Br)C(Br)(Br)Br` (stereo partly drawn) [(6), m-(p-Bromophenoxy)-α-cyanobenzyl d-cis-2,2-dimethyl-3-(1,2,2,2-tetrabromoethyl)cyclopropanecarboxylate], the “spreading of the damage to rice plants by carmine mites” value [5] is reported as “the spreading of the damage could be prevented”, the LC50 at 48 h [6] is reported as > 5 µg/mL and the “Safety coefficient to fishes (a)/(b)” value [7] is reported as > 263. It also gave an LC50 [9] of 9.5 µg/mL (≈ 12.8 µM).

For `CC1(C)C(C(=O)OC(C#N)c2cccc(Oc3ccccc3)c2)C1C(Br)C(Cl)(Cl)Br` (centres unmarked) [(A), reference compound], the LC50 at 48 h [6] was 0.5 µg/mL (≈ 0.868 µM), the “Safety coefficient to fishes (a)/(b)” value [7] was 50 and the LC50 at 48 h [1] was 0.00395 µg/mL (≈ 0.00686 µM). It also gave an LC50 [9] of 5 µg/mL (≈ 8.68 µM).

With `CC1(C)C(C(=O)OC(C#N)c2cccc(Oc3ccc(F)cc3)c2)C1C(Br)C(Cl)(Cl)Br` (centres unmarked) [(B), reference compound] the LC50 at 48 h [6] was 0.1 µg/mL (≈ 0.168 µM), the “Safety coefficient to fishes (a)/(b)” value [7] was 8 and the LC50 at 48 h [1] was 0.0028 µg/mL (≈ 0.00471 µM). For the same compound, the LC50 [9] was 6.5 µg/mL (≈ 10.9 µM).

In the case of `CNC(=O)Oc1ccc(C)c(C)c1` [MPMC, 3,4-Xylyl Nmethylcarbamate-, reference compound], the mortality at 400 ppm ([8]; 24 h, read-out: Mortality, effect immediately after treatment) is reported as 100% and the mortality at 400 ppm ([8]; read-out: Mortality, effect 7 days after treatment) is reported as 0%.
